Earlier results in US12358983B2, “Combination of anti CD19 antibody with a BCL-2 inhibitor and uses thereof” (Incyte Corporation, priority 2016, dated 2025).

Legend:
[1] = test system: primary cells from patients with B-cell malignancies; conditions: in vitro studies; cited from earlier work
[2] = test system: lymphoma and other blood cancers; conditions: in vivo; cited from earlier work
[3] = mouse, in vivo; cited from earlier work

Structure (SMILES): CN(C)CC[C@H](CSc1ccccc1)Nc1ccc(S(=O)(=O)NC(=O)c2ccc(N3CCN(Cc4ccccc4-c4ccc(Cl)cc4)CC3)cc2)cc1[N+](=O)[O-] [ABT-737]
- Sensitivity of primary cells (in words) [1]: sensitive
- Efficacy in patient xenografts (in words) [2]: showed efficacy
- Effect in animal models (in words) [3]: improves survival, causes tumor regression and cures a high percentage of mice
